Test results published in patent US20060148714A1, “Therapeutic peptide-based constructs” (priority 1999, published 2006).
Where a SMILES comes first, the peptide text is derived from it. [ ]: non-standard residue; d: D form. d1Nal = N[C@H](Cc1cccc2ccccc12)C(=O)O

Key:
LPS = assay: RAW cell assay of LPS neutralization; assay type: cell-based
[1] = tested on: Factor Xa neutralization by ATIII/heparin complexes; assay: Chromostrate heparin anti-Factor Xa assay (heparin neutralization); assay type: biochemical; settings: absorbance at 405 nm
Experimental: A Chromostrate™ assay was used to determine the effect of peptide-based constructs, including derivatized constructs, and the effect protamine sulfate (as a positive control) on Factor Xa neutralization by ATIII/heparin complexes. The assay was conducted using a Chromostrate™ heparin anti-Factor Xa assay kit (Organon Teknika Corp., Durham, N.C.). Heparin concentration was varied so that a heparin standard curve was generated. The assay measured the potentiating effect of heparin on anti-Xa activity in vitro. Solution containing heparin is incubated in the presence of ATIII with an excess of Factor Xa, forming an ATIII-Heparin-Xa complex. The remaining Xa catalyzes the release of p-nitroaniline (pNA) from the chromogenic substrate. The release of p-nitroaniline is measured at 405 nm. The absorbance obtained in inversely porportional to the concentration of heparin in the sample.
Reagents for the assay are prepared as follows. Heparin, peptide-based constructs and protamine sulfate stocks are made in saline. Stock solutions are approximately 1 mg/mL=1 μg/μL. Factor Xa reagent and substrate reagent are reconstituted with 2.0 mL purified water. Antithrombin III (ATIII) reagent is reconstituted with 1.0 mL purified water. The assay is performed in 96 well microtiter plates. Assay components are added to the microtiter wells as follows: 12.5 μl of heparin (from 0 to 10 U/mL), 25 μl of construct or protamine sulfate, 12.5 μL of ATIII (0.5 PEU/mL), 25 μL of bovine Factor Xa (14 nKat/mL), 25 μL substrate (3 μmoles/mL). The reaction is allowed to proceed for 20 minutes and then 25 μL of 0.1 M acetic acid is added. The color reaction is quantitated on a microplate reader at 405 nm. Constructs that neutralize heparin show an increase in the absorbance at 405 nm. Protamine is used as a positive control and its activity is designated as 100%. The percent (%) heparin neutralization for each peptide construct is calculated relative to the neutralization by protamine (100%), and shown in Table IV.

[2] = tested on: E. coli (J5 and 0111 B4), Staphylococcus aureus and Candida albicans; assay: Broth and/or radial diffusion antimicrobial assays; assay type: cell-based
Source text: Assays useful for testing a variety of biological activities of BPI protein products, including BPI-derived peptides, are described in co-owned U.S. Pat. Nos. 5,733,872; 5,763,567; 5,652,332; and 5,856,438 and corresponding PCT Publication Nos. WO 94/20532 (PCT/US94/02465) and WO 95/19372 (PCT/US94/10427) and U.S. Pat. No. 5,858,974 and corresponding PCT Publications Nos. WO 96/08509 (PCT/US95/09262) and WO 97/04008 (PCT/US96/03845), incorporated herein by reference. These activities include antimicrobial (including antibacterial and antifungal), LPS binding, LPS neutralization and additional assays of heparin binding as well as heparin neutralization.

SMILES | LPS neutralization activity (LPS) | Assay A: percent heparin neutralization relative to protamine (100%) [1] | Assay B: percent heparin neutralization relative to protamine (100%) [1] | antimicrobial activity [2]
CC(C)C[C@@H](NC(=O)[C@H](N)CCCCN)C(=O)N[C@H](Cc1ccccc1)C(=O)N[C@H](CCCNC(=N)N)C(=O)N[C@H](Cc1cccc2ccccc12)C(=O)N[C@H](CCC(N)=O)C(=O)N[C@H](C)C(=O)N[C@H](CCCCN)C(=O)N[C@H](Cc1cccc2ccccc12)C(=O)N[C@H](CCCCN)C(=O)NCC(=O)N[C@H](CO)C(N)=O [XMP.626, k-l-f-r-(naph-a)-q-a-k-(naph-a)-k-g-s] (H-[dK][dL][dF][dR][d1Nal][dQ][dA][dK][d1Nal][dK]G[dS]-NH2) | showed activity | 99% | 80% | –
CC(C)C[C@@H](NC(=O)[C@H](N)CCCCN)C(=O)N[C@H](Cc1ccccc1)C(=O)N[C@H](CCCNC(=N)N)C(=O)N[C@H](Cc1cccc2ccccc12)C(=O)N[C@H](CCC(N)=O)C(=O)N[C@H](C)C(=O)N[C@H](CCCCN)C(=O)N[C@H](Cc1cccc2ccccc12)C(=O)N[C@H](CCCCN)C(N)=O [XMP.628, k-l-f-r-(naph-a)-q-a-k-(naph-a)-k] (H-[dK][dL][dF][dR][d1Nal][dQ][dA][dK][d1Nal][dK]-NH2) | showed activity | 107% | 68% | highest antimicrobial activities
